Results on two compounds are retold here after US20230119013A1, “N-CYANOPYRROLIDINES WITH ACTIVITY AS USP30 INHIBITORS” (MISSION THERAPEUTICS LIMITED, priority 2020, published 2023).

The target in one series is Cathepsin K (Homo sapiens, UniProt P43235). The series can be described thus: Cathepsin IC50, Cathepsin K. In kind it is biochemical.
The nature of a further series: Turbidimetric solubility. Conditions: aqueous buffer, kinetic from dmso stock. Type of series: physicochemical. From the text:
(§1) log P: partition coefficient; lipophilicity measurement. log D: distribution co-efficient; lipophilicity measurement. TPSA: topological polar surface area. Turbidimetric solubility: Test compound solution prepared in DMSO diluted into aqueous buffer. Turbidimetry is used as the end-point by measuring absorbance at 620 nm. FaSSIF: simulated intestinal fluid in fasted state measured at pH 6.5. Hep Cl mouse: in vitro hepatocyte clearance in mouse cells. Hep Cl human: in vitro hepatocyte clearance in human cells. Plasma fu,p: The free fraction of a compound in plasma preparation determined by in vitro equilibrium dialysis. It is understood that only unbound (free) compound is capable of engaging with the target. Brain fu,br: The free fraction of a compound in brain homogenate preparation determined by in vitro equilibrium dialysis. It is understood that only unbound (free) compound is capable of engaging with the target. Clu: in vitro clearance. Clu as defined here is the scaled clearance, in turn calculated from the intrinsic clearance. The intrinsic clearance is the predicted clearance due to hepatic metabolic reactions, determined from incubation of a compound in a hepatocyte preparation. […] Cl in vivo clearance: Pharmacokinetic measurement of the volume of plasma (or any matrix) from which a substance is completely removed per unit time.

The test system of series [1] is USP2, USP10, USP16, USP21, USP22, USP25, USP28. Description: DUB IC50, seven DUBs. In kind it is biochemical. Conditions: range over the seven DUBs.
Series [2] deals with T1, USP2, USP10, USP16, USP21, USP22, USP25, USP28.
T1 construct: DUB IC50 (μM) USP2, USP10, USP16, USP21, USP22, USP25, USP28; other: range over the seven DUBs
Description: DUB IC50, seven DUBs. In kind it is biochemical. Conditions: range over the seven DUBs.

Series [3] deals with P-glycoprotein (MDR1), human. Description: MDR1-MDCK flux assay. Conditions: dog; for Papp A→B: value in brackets. Type of series: in vitro ADME. The text has this:
The treatment of CNS disorders, including Alzheimer's disease, Parkinson's disease, and other disorders described herein, requires drug molecules to target the brain, which requires adequate penetration of the blood brain barrier. […] The probability that a compound can cross the blood brain barrier may be measured by an in vitro flux assay utilizing a MDR1-MDCK cell monolayer (Madin-Darby Canine Kidney cells transfected with MDR-1 resulting in overexpression of the human efflux transporter P-glycoprotein). Additionally, exposure may also be measured directly in brain and plasma using in vivo animal models.
MDR1-MDCK (Madin-Darby Canine Kidney cell monolayer) (in vitro) flux assay. Cell TE WB: USP30 endogenous cellular target engagement western blot (WB) assay. Assays the activity of compounds against USP30 in cells using an irreversible activity probe to monitor USP30 activity. TE ex vivo: USP30 kidney tissue target engagement assay. Kp u,u is the ratio of unbound drug in brain to unbound drug in plasma and may be indicative of potential for treating peripheral and/or CNS indications.

For series [4], the system named is T2, cathepsins B, K, L, S and V.
T2 construct: Cathepsin IC50 (μM) B, K, L, S, V; other: range over the five cathepsins
Description: Cathepsin IC50, summary over B, K, L, S, V. In kind it is biochemical. Conditions: range over the five cathepsins.

The target of the next series is Cathepsin S (Homo sapiens, UniProt P25774). Description: Cathepsin IC50, Cathepsin S. In kind it is biochemical.
Chain of Cathepsin S (P25774 115-331, species assumed): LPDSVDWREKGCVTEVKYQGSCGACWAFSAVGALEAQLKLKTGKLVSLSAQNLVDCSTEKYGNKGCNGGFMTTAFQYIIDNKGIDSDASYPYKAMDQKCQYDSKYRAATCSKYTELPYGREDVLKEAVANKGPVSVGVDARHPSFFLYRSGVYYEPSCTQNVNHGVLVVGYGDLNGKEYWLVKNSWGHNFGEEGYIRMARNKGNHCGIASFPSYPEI
The test system of series [5] is Eurofins CEREP SafetyScreen44 panel. The series can be described thus: Eurofins CEREP SafetyScreen44 panel profiling. In kind it is binding. Conditions: single concentration of 10 μM; for Example 2 all targets except 5-HT2b. The text has this:
Aside from selectivity over other DUB enzymes, it is important for a drug to have low affinity for other targets, and pharmacological profiling may be performed against panels of targets to assess the potential for, and to minimise, potential off-target effects. Examples of targets for which the compounds of the present invention may be screened against are those of the industry standard Eurofins-Cerep SafetyScreen44 panel, which includes 44 targets as a representative selection of GPCR receptors, transporters, ion channels, nuclear receptors, and kinase and non-kinase enzymes. Preferably, compounds of the invention have insignificant affinity against targets of this screening panel. Further examples of targets for which the compounds of the present invention may be screened against are kinases of the Thermo Fisher SelectScreen kinase profiling panel, which includes 39 targets as a representative selection of kinase enzymes. Preferably, compounds of the invention have insignificant affinity against targets of this screening panel. Additionally, examples of a particular enzyme class for which the compounds of the present invention may be screened against are the cathepsins (e.g. cathepsin A, B, C, H, K, L, L2, S, V and Z). Preferably, compounds of the invention have good selectivity for USP30 over one or more of these enzymes. […]

The subject of series [6] is hepatocyte. Description: Hepatocyte clearance human. Type of series: in vitro ADME. Conditions: human hepatocytes.
Excerpt: as §1

For a further series, the target named is Cathepsin B (Homo sapiens, UniProt P07858). The series can be described thus: Cathepsin IC50, Cathepsin B. In kind it is biochemical.
The test system of a further series is TOM20 ubiquitylation. The series can be described thus: TOM20-ubiquitylation assay. In kind it is cell-based, human. Conditions: antimycin A/oligomycin mitophagy trigger. The text has this:
Human cell lines can be challenged with mitochondrial depolarizing agents (ionophores (eg. CCCP, valinomycin), mitochondrial complex inhibitors (oligomycin, antimycin A)) to induce ubiquitylation of TOM20, which is then further promoted in the presence of USP30 inhibitors. TOM20 ubiquitylation is subsequently assessed through western blotting of the cell lysates, with TOM20 ubiquitylation adduct detection possible due to an 8 kDa molecule weight increase for each molecule of ubiquitin added, resulting in laddering of a TOM20 immunoreactive band. TOM20-ubiquitylation levels can be quantified using chemiluminescence densitometry of laddered immunoreactive bands.

In series [7] the test system is hepatocyte. Description: Hepatocyte clearance mouse. Type of series: in vitro ADME. Conditions: mouse hepatocytes.
Excerpt: as §1

The target of the next series is Cathepsin V (Homo sapiens, UniProt O60911). The series can be described thus: Cathepsin IC50, Cathepsin V. Type of series: biochemical.
Chain of Cathepsin V (O60911 114-334, species assumed): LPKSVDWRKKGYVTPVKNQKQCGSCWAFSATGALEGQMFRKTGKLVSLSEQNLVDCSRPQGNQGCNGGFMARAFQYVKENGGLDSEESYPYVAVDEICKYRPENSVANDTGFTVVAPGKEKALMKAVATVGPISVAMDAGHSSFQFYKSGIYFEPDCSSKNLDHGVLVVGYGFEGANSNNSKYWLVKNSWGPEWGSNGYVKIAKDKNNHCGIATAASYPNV
A further series has as its target T3, hERG potassium channel (Homo sapiens, UniProt Q12809).
T3 construct: expressed in transfected cells
The series can be described thus: hERG potassium channel in stably expressed CHO cells. In kind it is cell-based. Conditions: for IC50: 0.01 to 30 μM, n=3; for inhibition at 30 µM: human, CHO cells stably expressing hERG, read-out: inhibition of the hERG current amplitude. How it is done: The hERG predictor assay provides valuable information about the possible binding of test compounds to the potassium channel and potential QT prolongation on […]. Inhibition of the hERG current causes QT interval prolongation resulting in potentially fatal ventricular tachyarrhythmia (Torsades de Pointes). Typically, assay data may be generated from an automated patch-clamp assay platform.
Example 1 was evaluated for effects on the hERG potassium channel, in stably expressed CHO cells at concentrations between 0.01 and 30 μM.
Example 2 was evaluated for effects on the hERG potassium channel, in stably expressed CHO cells at concentrations between 0.01 and 30 μM.
On the technique in general: Block of hERG is tested as a sign of cardiac risk.

Where only a bound is given, the exact number is not on record here.

T3 sequence (Q12809 whole entry): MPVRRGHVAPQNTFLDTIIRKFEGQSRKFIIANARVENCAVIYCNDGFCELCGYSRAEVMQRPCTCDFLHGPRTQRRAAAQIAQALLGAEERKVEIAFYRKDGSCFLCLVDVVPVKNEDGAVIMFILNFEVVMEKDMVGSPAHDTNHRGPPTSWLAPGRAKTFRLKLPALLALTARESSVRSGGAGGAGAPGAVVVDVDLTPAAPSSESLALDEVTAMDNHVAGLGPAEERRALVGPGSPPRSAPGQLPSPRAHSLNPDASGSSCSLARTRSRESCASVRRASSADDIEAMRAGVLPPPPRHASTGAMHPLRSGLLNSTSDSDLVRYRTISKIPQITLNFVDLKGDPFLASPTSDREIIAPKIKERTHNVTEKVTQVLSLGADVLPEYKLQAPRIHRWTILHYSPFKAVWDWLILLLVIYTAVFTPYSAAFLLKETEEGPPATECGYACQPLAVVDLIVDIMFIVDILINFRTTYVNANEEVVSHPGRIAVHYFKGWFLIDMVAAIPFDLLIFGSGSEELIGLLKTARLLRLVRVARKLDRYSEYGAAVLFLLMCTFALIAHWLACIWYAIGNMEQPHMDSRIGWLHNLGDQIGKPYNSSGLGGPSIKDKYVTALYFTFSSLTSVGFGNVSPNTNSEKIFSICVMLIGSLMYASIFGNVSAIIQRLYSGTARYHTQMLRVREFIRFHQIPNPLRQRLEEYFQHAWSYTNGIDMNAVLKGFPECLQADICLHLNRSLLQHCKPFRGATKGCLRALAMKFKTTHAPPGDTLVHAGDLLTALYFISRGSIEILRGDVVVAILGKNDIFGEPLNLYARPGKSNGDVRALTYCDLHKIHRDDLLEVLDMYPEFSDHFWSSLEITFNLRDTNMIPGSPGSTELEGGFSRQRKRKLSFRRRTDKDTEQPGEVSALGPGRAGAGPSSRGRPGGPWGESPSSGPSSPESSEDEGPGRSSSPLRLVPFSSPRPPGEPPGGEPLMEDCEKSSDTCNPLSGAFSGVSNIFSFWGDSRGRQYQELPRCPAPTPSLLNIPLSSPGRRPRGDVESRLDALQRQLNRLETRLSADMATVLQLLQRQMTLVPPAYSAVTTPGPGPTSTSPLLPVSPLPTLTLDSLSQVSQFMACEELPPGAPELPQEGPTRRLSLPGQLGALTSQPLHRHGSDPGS
Chain of Cathepsin K (P43235 115-329, species assumed): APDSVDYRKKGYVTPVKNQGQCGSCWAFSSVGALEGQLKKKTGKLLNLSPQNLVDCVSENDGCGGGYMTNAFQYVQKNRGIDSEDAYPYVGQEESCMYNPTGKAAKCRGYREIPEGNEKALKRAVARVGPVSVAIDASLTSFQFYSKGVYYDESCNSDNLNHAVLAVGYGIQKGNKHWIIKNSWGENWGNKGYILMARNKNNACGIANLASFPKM

`C[C@@H]1C[C@@H](NC(=O)c2ncc(-c3cccc(OC(F)(F)F)c3)o2)CN1C#N` [Example 2, N-((3R,5R)-1-Cyano-5-methylpyrrolidin-3-yl)-5-(3-(trifluoromethoxy)phenyl)oxazole-2-carboxamide]: the IC50 against Cathepsin K was 9.8 µM; in series [2], at least 4.7 µM; in series [4], at least 8.5 µM; at Cathepsin S, above 30 µM; against Cathepsin B it was above 30 µM; on Cathepsin V, above 30 µM. In addition, at hERG potassium channel, the IC50 was determined as 24.7 µM. In “Turbidimetric solubility”, this compound had a solubility above 100 µM. The “DUB selectivity preference for USP30 v 7 DUBs” value in series [1] is 940->20000. The efflux ratio in [3] stood at 1.9. The compound further showed a Papp A→B in series [3] of 12 ×10⁻⁶ cm/s. Further, the “inhibition of binding or enzyme activity against all targets in the panel” value in [5] was “less than 20%”. Besides, in the series on hepatocyte [6], the “Hepatocyte Cl human scaled Clu” value is 11.2 mL/min/kg. In addition, in the series on TOM20 ubiquitylation, the “TOM20-Ub 1.5-fold gain EC1.5x (μM)” value is 0.009 (n = 4) μM. Further, the “Hepatocyte Cl mouse scaled Clu” value with hepatocyte [7] came out at 130.6 mL/min/kg. Moreover, the inhibition at 30 µM on hERG potassium channel was 54.3%.
For the compound `COC[C@@H]1C[C@@H](NC(=O)c2ncc(-c3cccc(OC(F)(F)F)c3)o2)CN1C#N` [Example 1, N-((3R,5S)-1-Cyano-5-(methoxymethyl)pyrrolidin-3-yl)-5-(3-(trifluoromethoxy)phenyl)oxazole-2-carboxamide], the IC50 was 16.5 µM against Cathepsin K; 4.4 to 71.9 µM in [2]; 16.5 to 158 µM in series [4]; 158 µM against Cathepsin S; 44.3 µM at Cathepsin B; 132 µM at Cathepsin V. For the same compound, the IC50 against hERG potassium channel stood at 34.3 µM. Also, the solubility in “Turbidimetric solubility” was above 100 µM. Moreover, the “DUB selectivity preference for USP30 v 7 DUBs” value in [1] is listed as 880-14380. Further, the efflux ratio in [3] was 5.4. In [3], this compound came in with a Papp A→B of 18 ×10⁻⁶ cm/s. For the same compound, the “inhibition of binding or enzyme activity against all targets in the panel” value in series [5] is “less than 20%”. Further, the “Hepatocyte Cl human scaled Clu” value with hepatocyte [6] amounted to 5.6 mL/min/kg. For the same compound, the “TOM20-Ub 1.5-fold gain EC1.5x (μM)” value in the series with TOM20 ubiquitylation is 0.011 (n = 6) μM. Besides, the “Hepatocyte Cl mouse scaled Clu” value in the series with hepatocyte [7] is listed as 84.7 mL/min/kg. For the same compound, the inhibition at 30 µM at hERG potassium channel was 44.3%.

As usually defined, the IC50 is the concentration that gives 50% inhibition. A low value points to greater potency. By solubility is commonly meant the concentration that dissolves in the medium under given conditions. A high value points to much dissolved substance. As a reminder, the efflux ratio is the permeability from basolateral to apical divided by that in the opposite direction, in the common usage. Usually Papp A→B stands for the apparent permeability from the apical to the basolateral side of a cell layer. A high value points to fast passage. In general, inhibition refers to the drop in the measured response relative to a control, in per cent.
